# From patent publication US20200131473A1, “METHOD OF GENERATING 2 CELL-LIKE STEM CELLS” (IFOM FONDAZIONE ISTITUTO FIRC DI ONCOLOGIA MOLECOLARE, priority 2017, published 2020)
# “Also recorded” adds a separate entry of the source.
# Assays:
# [1] = system: pZscan4-Emerald ESCs; test: FACS analysis of Zscan4-Emerald ESCs (Emerald-GFP positive cells); format: cell-based, mouse; settings: for elevated expression of 2C-like specific genes (Zscan4, MERVL) upon APH and HU treatment: inhibitor added under replication stress, flow cytometry and immunoblot
# Experimental: All treatments including APH, HU, UV, ATRi, ATMi and Chk1i were added in to fresh ESC medium and the cells were kept in 37° C. and 3% 02 tension for overnight (16-17 hrs) unless mentioned in each particular result section. APH was used at various concentrations ranging from 0.3 uM to 6 uM that is mentioned in each experiment in order to induce mild to acute replication stress response. Similarly, HU was used at 0.1 mM-3 mM. ATMi (KU-55933) and ATRi (VE 822) were used at the concentration of 10 uM and 1 uM respectively. Moreover, Chk1i (UCN-01) at the concentration of 100 nM was used. UV radiation was performed at the dosage ranging from 2 to 10 J/m2. For induction of ETAA1-AAD expression, Dox was used at the concentration of 1 μg/mL for 48 hrs.
# ESCs were fixed and permeabilized using Cytoperm/Cytofix kit (BD Biosciences), and subsequently stained for one hour at room temperature with Alexa Fluor® 647 anti-H2AX-Phosphorylated (Ser139) antibody (Biolegend) or P-CHK1-PE conjugated antibody (cell signaling 12268). Cells were washed and acquired on a FACS Calibur instrument or Attune NxT (Thermo Fisher Scientific). For Emerald-GFP acquisition, cells were trypsinized, collected and subsequently acquired without fixation. Cell cycle profiles were acquired after incubation with DAPI (4′,6-diamidino-2-phenylindole) overnight. For Caspase3 FACS analysis after fixation and permeabilization, Cleaved Caspase3 antibody were used for one hr at RT followed by washes and one hr incubation in donkey anti rabbit secondary antibody. […]
# [2] = system: ESC lines E14, R1 and MC1; test: High-throughput transcriptional profiling (RNA sequencing) of ESC lines E14, R1 and MC1; format: cell-based, mouse
# Experimental: RNA samples were quantified using Qubit 2.0 Fluorometer (Life Technologies, Carlsbad, Calif., USA) and RNA integrity was checked with RNA Screen Tape on Agilent 2200 TapeStation (Agilent Technologies, Palo Alto, Calif., USA). […] RNA sequencing library preparation was prepared using Ribo-Zero rRNA Removal Kit and TruSeq Stranded Total RNA library Prep kit following manufacturer's protocol (Illumina, Cat # RS-122-2101). Briefly, rRNA was depleted with Ribo-Zero rRNA Removal Kit. rRNA depleted RNAs were fragmented for 8 minutes at 94° C. First strand and second strand cDNA were subsequently synthesized. The second strand of cDNA was marked by incorporating dUTP during the synthesis. cDNA fragments were adenylated at 3′ends, and indexed adapter was ligated to cDNA fragments. Limited cycle PCR was used for library enrichment. The incorporated dUTP in second strand cDNA quenched the amplification of second strand, which helped to preserve the strand specificity. Sequencing libraries were validated using DNA Analysis Screen Tape on the Agilent 2200 TapeStation (Agilent Technologies, Palo Alto, Calif., USA), and quantified by using Qubit 2.0 Fluorometer (Invitrogen, Carlsbad, Calif.) as well as by quantitative PCR (Applied Biosystems, Carlsbad, Calif., USA).
# The sequencing libraries were multiplexed and clustered on 1 lane of flowcell. […] On average ˜29 million reads were generated for a sample and average insert size ranged between 204-231 for the samples.
# Transcript and gene level quantification was done with Kallisto (version 0.43.0)^16. […] Additionally, all reads were mapped with the STAR spliced aligner (version 2.5.2b)^17 to the GRCm38 (mm10) genome after trimming the reads to 100 bp with Trimmomatic (version 0.36)^18. Repeat expression was quantified by counting fragments overlapping with the repeat annotation from the Choi et al. 2017 paper, with using FeatureCounts from the subread package (version 1.5.2)^19. […]
# Read counts for each sample estimated by Kallisto were imported into the R statistical environment (version 3.2.2) using tximport (version 1.1.2)^20. […]
Structure (SMILES),"number of Emerald-GFP positive (Em+) ESCs ([1]; RS inducing agents, dose-dependent, qPCR and FACS)","downregulated genes ([2]; APH treatment, FDR<0.05) [genes]","upregulated genes with more than two-fold change ([2]; APH treatment, FDR<0.05) [genes]","elevated expression of 2C-like specific genes (Zscan4, MERVL) upon APH and HU treatment [1]","elevated expression of 2C-like specific genes (Zscan4, MERVL) upon APH and HU treatment ([1]; listed as ATR inhibitor)","number of Zscan4-Emerald positive cells ([1]; normal culture condition, ATRi 1 uM, ATMi 10 uM)",genes shared between APH and DUX-induced condition rescued ([2]; APH plus ATRi) [%]
"C[C@@]1(CO)[C@H](O)CC[C@@]2(C)[C@H]1CC[C@H]1C[C@@H]3C[C@@]12CC[C@]3(O)CO [APH, aphidicolin]",significant increase,640,3074,,,,
CNCc1ccc(-c2cc(-c3nc(-c4ccc(S(=O)(=O)C(C)C)cc4)cnc3N)on2)cc1 [VE 822],,,,robustly revert,robustly suppress,markedly reduce; also recorded: marked reduction,71
